Assay results published in PubChem BioAssay (NCI).
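Five compound concentrations were applied to cells in 96-well plates for 48 hours; endpoints were derived by simple linear interpolation of the resulting dose-response curve. At the TGI there is no net growth.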

What was measured:
Assay in all cases: inhibition of tumour cell growth, NCI panel, 48 h
SNB-75 CNS = system: SNB-75 CNS
DU-145 prostate = system: DU-145 prostate
MCF7 breast = system: MCF7 breast
HT29 colon = system: HT29 colon
786-0 renal = system: 786-0 renal
CCRF-CEM leukemia = system: CCRF-CEM leukemia
SK-MEL-28 melanoma = system: SK-MEL-28 melanoma
HCC-2998 colon = system: HCC-2998 colon
OVCAR-3 ovarian = system: OVCAR-3 ovarian
HOP-92 NSCLC = system: HOP-92 NSCLC

SMILES | TGI (SNB-75 CNS) | TGI (DU-145 prostate) | TGI (MCF7 breast) | TGI (HT29 colon) | TGI (786-0 renal) | TGI (CCRF-CEM leukemia) | TGI (SK-MEL-28 melanoma) | TGI (HCC-2998 colon) | TGI (OVCAR-3 ovarian) | TGI (HOP-92 NSCLC)
Cc1cc(S(=O)(=O)NC(=NCCc2ccccc2)NN)c(S)cc1Cl | 69.7 µM | 34.6 µM | > 100 µM | > 100 µM | > 100 µM | 90.1 µM | 71.3 µM | 50.6 µM | 74.8 µM | 
COC(=O)C(=O)C(/C(=N/N)C(=O)Nc1ccccc1C(N)=O)c1nc2ccc([N+](=O)[O-])cc2[nH]c1=O (stereo not drawn) |  |  |  | > 100 µM | > 100 µM | > 100 µM | > 100 µM | > 100 µM | > 100 µM | 
CCN(CC)Cc1cc(Nc2ccnc3ccc4nn(C)nc4c23)ccc1O | 26.1 µM |  |  | 20.9 µM | 49.5 µM | > 100 µM | 27.4 µM | 26.4 µM | 68 µM | 
COc1ccccc1NC(=O)CC(=O)N1N=C(c2ccccc2)C(N=Nc2ccc(Cl)cc2)C1=O (stereo not drawn) | 55 µM |  |  | > 100 µM | 37 µM |  | > 100 µM | > 100 µM | 74.3 µM | 
CCOc1cccc(-c2cc(=O)c3cc4c(cc3[nH]2)OCO4)c1 | 36.1 µM | > 100 µM | > 100 µM | 0.593 µM | 7.06 µM |  | > 100 µM | 0.695 µM | 3.88 µM | 6.04 µM
O=[N+]([O-])C(/C=C(\Cl)[N+](=O)[O-])=C(N1CCCCC1)N1CCCCC1 |  | > 100 µM | 18.9 µM | > 100 µM | > 100 µM | 59 µM | > 100 µM | > 100 µM | 54.7 µM | > 100 µM
CCCCCCCCCCCCC(Br)C(C)=O (stereo not drawn) |  |  |  | > 100 µM | > 100 µM | > 100 µM | > 100 µM | > 100 µM | > 100 µM | > 100 µM
C#CCOCn1cc(C)c(=O)[nH]c1=O | > 100 µM | > 100 µM | > 100 µM | > 100 µM | > 100 µM | > 100 µM | > 100 µM | > 100 µM |  | 
S=C1CC(c2ccccc2)Sc2cc(Cl)ccc2N1 (stereo not drawn) | 20.8 µM | > 100 µM | 34.8 µM | > 100 µM | 17.7 µM | 9.33 µM | 51.8 µM |  | 8.49 µM | 
COC(=O)[C@]12CSC[C@H]1C[C@H](c1cccc3ccccc13)N2 | > 100 µM | > 100 µM | > 100 µM |  | > 100 µM | > 100 µM | > 100 µM | > 100 µM | > 100 µM | > 100 µM
O=C(CN=C(CN(c1ccccc1)c1ccccc1)Oc1ccc(Cl)cc1Cl)n1ccnc1 | > 100 µM | > 100 µM | > 100 µM | > 100 µM | > 100 µM | > 100 µM | > 100 µM |  | > 100 µM | > 100 µM
COc1cc(CNc2cnc3ccc(N)cc3n2)cc(OC)c1OC | > 100 µM |  |  | > 100 µM | > 100 µM | > 100 µM | > 100 µM | > 100 µM | > 100 µM | > 100 µM
CC1=CC(=O)N(n2c(Cc3ccc(Cl)cc3)n[nH]c2=O)C1=O |  | > 100 µM | > 100 µM | 55.3 µM | > 100 µM | 29.3 µM |  | > 100 µM | > 100 µM | 67.7 µM
Cc1ccc(-c2nnc3s/c(=C\c4ccc(N(C)C)cc4)c(=O)n23)cc1 | > 100 µM |  |  |  | > 100 µM | > 100 µM | > 100 µM | > 100 µM | > 100 µM | > 100 µM
O=C(O)CCN(CCCN(CCC(=O)O)CCC(=O)O)CCC(=O)O | > 100 µM |  |  | > 100 µM | > 100 µM | > 100 µM | > 100 µM | > 100 µM | > 100 µM | > 100 µM
CN(C)C(=NC#N)N(Cc1ccccc1)Cc1ccccc1 | > 100 µM |  |  | > 100 µM | > 100 µM | > 100 µM | > 100 µM | > 100 µM | > 100 µM | > 100 µM
CC(C)C(Sc1nc(-c2ccccc2)c(-c2ccccc2)[nH]1)c1n[nH]c(=S)n1-c1ccccc1 (stereo not drawn) | > 100 µM |  |  | 70.3 µM | > 100 µM | 64.5 µM | 70.2 µM | 46 µM | 45.9 µM | 72 µM
CC1(C)CCCCCCCCCC2CC2CCC(C)(C)C1=O (stereo not drawn) | 71.1 µM | 40.9 µM | 30 µM | 39.6 µM | 31.5 µM | 53.3 µM | 72.8 µM |  | 25.9 µM | 62.7 µM
Nc1cc(Cl)ccc1SSc1ccc(Cl)cc1N | 37.6 µM | 29.2 µM | 15.7 µM | 42.3 µM | 25.9 µM | > 100 µM | 40.6 µM |  |  | > 100 µM
CC(C(=O)n1ccnc1)N1c2ccccc2Sc2ccccc21 (stereo not drawn) | > 100 µM | > 100 µM | > 100 µM | > 100 µM | > 100 µM | > 100 µM | > 100 µM |  | > 100 µM | 79.9 µM
O=c1[nH]c2c(c(=O)[nH]1)C(c1ccc([N+](=O)[O-])cc1)c1c([nH]c(=O)[nH]c1=O)O2 |  | > 100 µM |  | > 100 µM | > 100 µM | 90.5 µM | > 100 µM |  | > 100 µM | 
CC1=CC(=O)N(n2c(-c3ccccc3)n[nH]c2=O)C1=O | > 100 µM | > 100 µM | > 100 µM | > 100 µM | > 100 µM | > 100 µM | > 100 µM | > 100 µM | > 100 µM | 
O=c1[nH]c(=O)n(CCOc2ccc(Cl)cc2)cc1Nc1ccccc1 |  | > 100 µM | > 100 µM | > 100 µM | > 100 µM | > 100 µM | > 100 µM | > 100 µM | > 100 µM | > 100 µM
O=S(=O)(CCC[C@H]1[C@@H](CCOCc2ccccc2)C2CCCN1O2)c1ccccc1 (stereo partly drawn) | > 100 µM |  | > 100 µM | > 100 µM | > 100 µM | > 100 µM | > 100 µM | > 100 µM | > 100 µM | > 100 µM
